From patent publication US10227295B2, “Selective histone deactylase 6 inhibitors” (H. LEE MOFFITT CANCER CENTER AND RESEARCH INSTITUTE, INC., priority 2013, dated 2019)

Legend:
Assay type in all cases: cell-based
[1] = test system: NRAS and BRAF mutant human melanoma cell lines; assay: Human melanoma cell proliferation MTS assay; settings: 24 h, panel of human melanoma cell lines
Description: Cell proliferation was evaluated using various pan- and isotype selective HDACi in a broad panel of human melanoma cell lines. Briefly, cells were plated at 10×10^3/well in a 96 well flat bottom plate. The following day, media was changed to that containing different concentrations of HDACi or matched DMSO vehicle concentrations diluted in complete medium done in triplicate, all with a final concentration of less than 0.1% DMSO. Cells were incubated for 24 hours at 37° C. and 5% CO2. […] All values were then normalized and expressed as a percentage of medium control growth.

[2] = test system: acetyl-tubulin and acetyl-histone3 in human melanoma cell lines; assay: Western blot of HDAC substrate acetylation in human melanoma cells; settings: 24 hrs
Description: Error bars represent standard deviation from triplicates. This figure is representative of three independent experiments. (F,G,H) Cell cycle analysis of melanoma WM164, WM983A and WM793 human melanoma cell lines stained with propidium iodide. Data is representative of three experiments with similar results.
To confirm the selectivity of isotype specific HDACi, Western blot analysis was performed on the acetylation status of known HDAC substrates including histone H3 and H4, which are known Class I HDAC targets, and α-tubulin, a target for HDAC6. The doses required to impart the anti-proliferative effect coincided with that needed to increase acetylation of the respective HDAC substrates (FIG. 41F-41H). […] Conversely, HDAC6 selective inhibitors (HDAC6i) increase α-tubulin acetylation but not histone acetylation (FIG. 41F).

[3] = test system: human melanoma cell lines; assay: Cell cycle analysis by propidium iodide staining
Description: Cells were treated with indicated doses of HDAC inhibitors or DMSO control and then trypsinized, washed, and rendered into a single cell suspension in 1 mL of DPBS. 4 mL ice cold 200 proof ethyl alcohol was added dropwise while vortexing to fix cells. Samples were washed and resuspended in 75% ethanol solution overnight. Then, cells were washed in PBS+0.1% Triton X-100 and counted. Equal numbers of cells were then stained in a solution containing 10 μg/mL RNAseA+1 μg/mL propidium iodide for 2 hours at room temperature. Data was then acquired using a FACSCaliber with at least 10,000 events collected. Cell cycle analysis was completed using ModFit LT (Verity Software House, Topsham, Me.).

## Nc1ccccc1NC(=O)c1ccc(CNc2nccc(-c3cccnc3)n2)cc1 [MGCD0103]
[1]
  concentration range inhibiting proliferation (in words): low micromolar range
[2]
  acetylation of α-tubulin and histone: unchanged
[3]
  cell cycle effects: variable cell cycle effects
